Experimental data: publication PMC10745882, “Investigation of Drug-Interaction Potential for Arthritis Dietary Supplements: Chondroitin Sulfate, Glucosamine, and Methylsulfonylmethane” (Molecules, 2023)

Columns and labels:
[1] = target: T1, CYP2B6 (Homo sapiens, UniProt P20813); assay: CYP inhibition assay in human liver microsomes (LC-MS/MS cocktail), bupropion to OH-bupropion; type: in vitro ADME
T1 construct: Pooled human liver microsomes were purchased from BD Gentest; tissue BD Gentest; host or cells: pooled human liver microsomes
T1 sequence (P20813 1-491): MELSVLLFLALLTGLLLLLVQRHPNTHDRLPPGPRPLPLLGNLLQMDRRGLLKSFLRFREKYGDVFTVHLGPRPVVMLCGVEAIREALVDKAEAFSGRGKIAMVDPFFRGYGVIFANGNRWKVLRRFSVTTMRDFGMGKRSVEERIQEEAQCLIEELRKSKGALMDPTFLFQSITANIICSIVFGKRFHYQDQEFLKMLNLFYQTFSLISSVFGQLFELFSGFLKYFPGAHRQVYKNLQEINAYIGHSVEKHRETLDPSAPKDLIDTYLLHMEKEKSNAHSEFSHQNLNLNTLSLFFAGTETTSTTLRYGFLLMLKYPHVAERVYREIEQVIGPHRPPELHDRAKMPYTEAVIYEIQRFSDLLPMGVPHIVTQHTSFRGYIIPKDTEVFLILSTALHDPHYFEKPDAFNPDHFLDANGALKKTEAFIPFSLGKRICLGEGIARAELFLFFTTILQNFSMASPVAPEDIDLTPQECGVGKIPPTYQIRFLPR
Procedure: (§1) For the experimental method, the reference method was used. Briefly, incubation mixtures were composed of 0.5 mg/mL human liver microsomes; varying concentrations of CS in DW (0.1, 0.3, 1, 3, 10, 30, 100, and 200 µM) or MSM in DW (0.1, 0.3, 1, 3, 10, 30, 100, 300, and 1000 µM) or GCS in DMSO (0.1, 0.3, 1, 3, 10, 30, 100, 300, and 1000 µM); a substrate mixture in DMSO (40 µM phenacetin for CYP1A2; 2.5 µM coumarin for CYP2A6; 80 µM bupropion for CYP2B6; 10 µM diclofenac for CYP2C9; 80 µM [±]-mephenytoin for CYP2C19; 5 µM dextromethorphan for CYP2D6; 2.5 µM midazolam and 30 µM testosterone for CYP3A4); and an NADPH generating system (NGS; 0.1 M glucose-6-phosphate, 10 mg/mL β-NADP^+, and 1 U/mL glucose-6-phosphate dehydrogenase) in a total volume of 200 µL potassium phosphate buffer (0.1 M, pH 7.4). The reaction mixture, excluding NGS, underwent pre-incubation at 37 °C for 5 min, followed by further incubation with NGS for 30 min in a water bath. Well-established selective CYP inhibitors were employed as positive controls (40 µM ketoconazole for CYP3A4, 50 µM furafyllin for CYP1A2, 10 µM quinidine for CYP2D6, 125 µM ticlopidine for CYP2C19 and CYP2B6, 10 µM 8-methoxsalen for CYP2A6, and 10 µM sulfaphenazole for CYP2C9). Post incubation, the reaction was halted by adding 50 µL ice-cold 1% formic acid acetonitrile. After centrifugation at 13,200 rpm for 5 min, the supernatant was collected from the sample and subjected to analysis via an LC-MS/MS system. All experiments were performed in triplicate.
(§2) For the experimental method, the reference method was used. The LC-MS/MS system utilized in this study consisted of an Agilent 1260 binary pump HPLC system coupled with the Agilent 6460 Triple Quadrupole mass spectrometer (Agilent Technologies, Santa Clara, CA, USA), featuring an electrospray ionization source. Chromatographic separation was achieved using a Fortis C8 column (2.1 × 100 mm, 5.0 µm; Fortis Technologies Ltd., Neston, UK). The HPLC mobile phases comprised (A) 0.1% formic acid and (B) 0.1% formic acid in 90% acetonitrile. A gradient elution method was employed with an initial solvent B concentration of 15% and a flow rate of 0.25 mL/min. […] The total run time was 11.0 min, and the injection volume was 5 µL. Mass detection was conducted in the positive ion mode using multiple reaction monitoring (MRM). Specific MRM transitions for each analyte are detailed in Table S4.

[2] = target: T2, CYP3A4(T) (Homo sapiens, UniProt P08684); assay: CYP inhibition assay in human liver microsomes (LC-MS/MS cocktail), testosterone to 6-β-OH-Testosterone; type: in vitro ADME
T2 construct: Pooled human liver microsomes were purchased from BD Gentest; tissue BD Gentest; host or cells: pooled human liver microsomes
T2 sequence (P08684 whole entry): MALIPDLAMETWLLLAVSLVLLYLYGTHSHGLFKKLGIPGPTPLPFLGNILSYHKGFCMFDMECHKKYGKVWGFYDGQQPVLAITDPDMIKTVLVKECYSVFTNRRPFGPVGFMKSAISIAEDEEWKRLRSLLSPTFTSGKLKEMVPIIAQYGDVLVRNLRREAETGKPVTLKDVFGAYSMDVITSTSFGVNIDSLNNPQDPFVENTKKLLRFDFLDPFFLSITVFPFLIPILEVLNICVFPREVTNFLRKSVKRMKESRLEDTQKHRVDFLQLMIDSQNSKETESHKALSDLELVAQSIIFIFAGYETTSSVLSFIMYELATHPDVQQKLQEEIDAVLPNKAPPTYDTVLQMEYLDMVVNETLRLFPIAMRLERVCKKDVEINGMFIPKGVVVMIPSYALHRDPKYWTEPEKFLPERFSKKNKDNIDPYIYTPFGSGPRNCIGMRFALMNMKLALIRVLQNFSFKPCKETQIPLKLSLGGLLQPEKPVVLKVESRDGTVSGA
Procedure: as §1, §2

[3] = tested on: CYP2C9; set-up: method as in PMID 34821124, PMID 29488228; conditions: previous studies; cited from earlier work
[4] = cited from earlier work
[5] = target: T3, CYP1A2 (Homo sapiens, UniProt P05177); assay: CYP inhibition assay in human liver microsomes (LC-MS/MS cocktail), phenacetin to acetaminophen; type: in vitro ADME
T3 construct: Pooled human liver microsomes were purchased from BD Gentest; tissue BD Gentest; host or cells: pooled human liver microsomes
T3 sequence (P05177 1-516): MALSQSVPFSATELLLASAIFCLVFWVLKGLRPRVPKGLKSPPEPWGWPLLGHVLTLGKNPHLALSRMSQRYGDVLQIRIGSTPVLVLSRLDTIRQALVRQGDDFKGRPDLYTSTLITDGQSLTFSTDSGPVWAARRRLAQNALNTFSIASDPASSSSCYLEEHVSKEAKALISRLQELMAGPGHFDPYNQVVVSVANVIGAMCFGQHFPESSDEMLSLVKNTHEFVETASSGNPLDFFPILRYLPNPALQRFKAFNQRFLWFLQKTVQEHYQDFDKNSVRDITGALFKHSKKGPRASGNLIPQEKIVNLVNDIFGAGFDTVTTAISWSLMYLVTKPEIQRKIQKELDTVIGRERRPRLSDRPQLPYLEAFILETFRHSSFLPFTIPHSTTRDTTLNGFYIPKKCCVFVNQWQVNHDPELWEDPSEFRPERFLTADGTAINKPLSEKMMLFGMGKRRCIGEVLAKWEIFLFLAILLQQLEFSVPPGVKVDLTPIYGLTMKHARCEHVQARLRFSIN
Procedure: as §1, §2

Compound: N[C@H]1C(O)O[C@H](CO)[C@@H](O)[C@@H]1O (stereo partly drawn) [GCS, glucosamine]
- Remaining Activities (% of Control, n = 3) ([1]; test substance 0.3 μM): 121.0 ± 11.6 % of Control
- Remaining Activities (% of Control, n = 3) ([1]; test substance 1 μM): 116.2 ± 5.8 % of Control
- Remaining Activities (% of Control, n = 3) ([1]; test substance 3 μM): 114.3 ± 3.5 % of Control
- Remaining Activities (% of Control, n = 3) ([1]; test substance 10 μM): 108.2 ± 3.1 % of Control
- Remaining Activities (% of Control, n = 3) ([1]; test substance 30 μM): 107.8 ± 1.3 % of Control
- Remaining Activities (% of Control, n = 3) ([1]; test substance 100 μM): 111.2 ± 2.3 % of Control
- Remaining Activities (% of Control, n = 3) ([1]; test substance 300 μM): 105.6 ± 1.8 % of Control
- Remaining Activities (% of Control, n = 3) ([1]; test substance 1000 μM): 103.5 ± 9.2 % of Control
- Remaining Activities (% of Control, n = 3) ([2]; test substance 0.3 μM): 92.8 ± 0.6 % of Control
- Remaining Activities (% of Control, n = 3) ([2]; test substance 1 μM): 92.4 ± 0.9 % of Control
- Remaining Activities (% of Control, n = 3) ([2]; test substance 3 μM): 91.1 ± 3.1 % of Control
- Remaining Activities (% of Control, n = 3) ([2]; test substance 10 μM): 91.7 ± 4.4 % of Control
- Remaining Activities (% of Control, n = 3) ([2]; test substance 30 μM): 91.8 ± 3.0 % of Control
- Remaining Activities (% of Control, n = 3) ([2]; test substance 100 μM): 84.8 ± 7.8 % of Control
- Remaining Activities (% of Control, n = 3) ([2]; test substance 300 μM): 82.1 ± 3.4 % of Control
- Remaining Activities (% of Control, n = 3) ([2]; test substance 1000 μM): 80.0 ± 6.6 % of Control
- inhibitory effects on CYP2C9 [3]: no inhibitory effects
- cases of INR elevation when coumarin anticoagulants were combined with GCS ([4]; EFSA scientific opinion): 40 cases
- INR on co-administration with warfarin ([4]; interaction case, co-administration of CS and GCS with warfarin): elevated INR
- Remaining Activities (% of Control, n = 3) ([5]; test substance 0.3 μM): 110.2 ± 20.5 % of Control
- Remaining Activities (% of Control, n = 3) ([5]; test substance 1 μM): 103.1 ± 1.5 % of Control
- Remaining Activities (% of Control, n = 3) ([5]; test substance 3 μM): 101.1 ± 7.5 % of Control
- Remaining Activities (% of Control, n = 3) ([5]; test substance 10 μM): 94.2 ± 1.8 % of Control
- Remaining Activities (% of Control, n = 3) ([5]; test substance 30 μM): 94.1 ± 3.0 % of Control
- Remaining Activities (% of Control, n = 3) ([5]; test substance 100 μM): 97.2 ± 3.7 % of Control
- Remaining Activities (% of Control, n = 3) ([5]; test substance 300 μM): 86.7 ± 2.8 % of Control
- Remaining Activities (% of Control, n = 3) ([5]; test substance 1000 μM): 82.5 ± 12.0 % of Control
